Measurements as given in patent US4970297A, “Transglutaminase inhibitors” (Syntex (U.S.A.) Inc., priority 1987, dated 1990).

Legend:
[1] = target: T1, tissue transglutaminase (UniProt P08587); test: Inactivation of tissue transglutaminase; type: biochemical
T1 construct: Liver transglutaminase from guinea pig liver was isolated and partially purified; from tissue; host or cells: guinea pig liver
Method: Liver transglutaminase from guinea pig liver was isolated and partially purified according to the procedure outlined in "Methods of Enzymology", Vol. 113, pp. 358-375, with minor modifications. The 105,000×g supernatant from the 15,000×g supernatant of a crude homogenate of guinea pig liver, was chromatographed on DEAE-Sepharose CL-6B. Enzymatic activity was eluted with a 0-1.0M NaCl gradient in 5 mM TRIS, 2 mM EDTA pH 7.5 buffer. Fractions containing activity were pooled, dialyzed against 50 mM TRIS-HCl, 2 mM EDTA, pH 7.5 buffer and concentrated, when necessary, by Amicon Ultrafiltration (PM 10 filters).
The activity and inhibition of guinea pig liver transglutaminase was assayed by measurement of the rate of incorporation of hydroxylamine into simple glutaminyl peptide derivatives, preferably CBZ-(L)-Glutaminyl-Glycine (see Folk and Chung, "Methods in Enzymology", Vol. 113, pp. 359-361). […]
Prior to activity determination, guinea pig liver transglutaminase was activated anaerobically with 5 mM calcium chloride and 1 mM dithiothreitol at 25° C. […] The concentration of product formed after 10-25 minutes incubation was determined by quenching with 250 microliters of acidic ferric chloride reagent and measurement of the absorbance at 525 nm using a Gilford 2600 UV/VIS spectrophotometer. Typical uninhibited samples provided sufficient product for 0.5 absorbance units at 525 nm. […]

[2] = test system: human T-lymphocyte; test: Human T-lymphocyte transformation in vitro; type: cell-based; conditions: at 10^-6 in vitro
Source text: Transglutaminase inactivator, N-benzyloxycarbonyl-D,L-β-(3-bromo-4,5-dihydroisoxazol-5-yl)-alanine (4-(ethoxycarbonyl)phenyl)amide, inhibited human T-lymphocyte transformation at 10^-6 in vitro.

[3] = test system: galactose-induced cataracts; test: Cataract therapy: galactose-induced cataracts; type: in vivo; conditions: oral route in the diet at 0.05%
[4] = test system: transglutaminase; conditions: previously reported inhibitors; cited from earlier work
[5] = test system: Nippostronglus braziliensis; test: In vitro assay against Nippostronglus braziliensis; type: cell-based; design: key: A compound is defined as active if (1) cast formation is reduced 50 percent or more or (2) viability and motility together are reduced 50 percent or more; conditions: 50 μg/ml, fourth larval stage (L4), incubated at 37° C. for seven days
Method: N-Benzyloxycarbonyl-D,L-β-(3-bromo-4,5-dihydroisoxazol-5-yl)-alanine benzylamide was active against Nippostronglus braziliensis in an in vitro assay.
Rats were inoculated with 5,000 to 6,000 N. braziliensis third stage larvae subcutaneously. Seventy-two hours later rats were sacrificed and the fourth stage larvae harvested. Each drug was tested at 50 μg/ml against the fourth larval stage (L4) of N. braziliensis at approximately 50 L4/well. This mixture was incubated at 37° C. for a total of seven days and then read for activity. Parameters used to determine drug activity are motility, percent viability, and percent of L4 able to molt to the adult (percent cast formation). A compound is defined as active if (1) cast formation is reduced 50 percent or more or (2) viability and motility together are reduced 50 percent or more.

[6] = test system: Nematospiroides dubius; test: In vivo assay of anthelmintic activity, mixed helminth infection in mice; design: species or system Swiss-Webster mice; conditions: 1000 ppm in the food ad lib for 11 days from 24 hours post-infection, sacrificed on day 17
Method: (§1) Male, Swiss-Webster mice were challenged with a mixed helminth infection of Nematospiroides dubius and Hymenolepsis nana. Starting 24 hours post-infection (p.i.) mice were treated for 11 days ad lib with N-Benzyloxycarbonyl-D,L-β-(3-bromo-4,5-dihydroisoxazol-5-yl)-alanine benzylamide mixed in the food at 1000 ppm. Animals were sacrificed on day 17 to examine parasite burden in the intestine.

[7] = test system: Hymenolepsis nana; test: as above; design: species or system Swiss-Webster mice; conditions: 1000 ppm in the food ad lib for 11 days from 24 hours post-infection, sacrificed on day 17
Method: as §1

T1 sequence (P08587 whole entry): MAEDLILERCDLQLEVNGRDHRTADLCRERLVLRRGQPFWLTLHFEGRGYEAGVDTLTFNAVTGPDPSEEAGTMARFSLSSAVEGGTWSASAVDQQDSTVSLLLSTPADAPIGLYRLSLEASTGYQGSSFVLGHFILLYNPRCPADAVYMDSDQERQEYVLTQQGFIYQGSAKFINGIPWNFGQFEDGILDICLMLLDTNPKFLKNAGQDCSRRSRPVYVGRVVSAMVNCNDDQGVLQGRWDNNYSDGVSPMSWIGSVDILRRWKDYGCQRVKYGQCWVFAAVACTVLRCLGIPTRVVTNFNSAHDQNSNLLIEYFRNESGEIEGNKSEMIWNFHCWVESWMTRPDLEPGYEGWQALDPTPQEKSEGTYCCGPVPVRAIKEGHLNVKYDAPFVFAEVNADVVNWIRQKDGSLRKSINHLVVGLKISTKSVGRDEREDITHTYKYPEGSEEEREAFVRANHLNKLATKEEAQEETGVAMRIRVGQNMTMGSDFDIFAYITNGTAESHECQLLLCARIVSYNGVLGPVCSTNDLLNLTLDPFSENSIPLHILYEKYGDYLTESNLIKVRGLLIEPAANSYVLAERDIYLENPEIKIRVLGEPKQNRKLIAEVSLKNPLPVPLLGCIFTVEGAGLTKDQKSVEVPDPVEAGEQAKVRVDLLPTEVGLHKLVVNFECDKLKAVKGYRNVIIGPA

CCOC(=O)c1ccc(NC(=O)C(CC2CC(Br)=NO2)NC(=O)OCc2ccccc2)cc1 (racemic) [N-benzyloxycarbonyl-D,L-β-(3-bromo-4,5-dihydroisoxazol-5-yl)-alanine (4-(ethoxycarbonyl)phenyl)amide]
inactivation of tissue transglutaminase [1]: potent inactivator | cytotoxicity associated with the inhibition of T-lymphocyte transformation [2]: not associated with cytotoxicity | inhibition of human T-lymphocyte transformation [2]: inhibited | onset of galactose-induced cataracts [3]: delayed the onset

NCCSSCCN [cystamine]
concentration at which effective as transglutaminase inhibitor [4]: greater than 10^-3 M | specificity for transglutaminases [4]: lacks specificity

O=C(NC(CC1CC(Br)=NO1)C(=O)NCc1ccccc1)OCc1ccccc1 (racemic) [N-Benzyloxycarbonyl-D,L-β-(3-bromo-4,5-dihydroisoxazol-5-yl)-alanine benzylamide]
activity against Nippostronglus braziliensis (cast formation, viability and motility) [5]: active | percent reduction of parasites in the intestine (Nematospiroides dubius) [6]: significant percent reduction of parasites | percent reduction of parasites in the intestine (Hymenolepsis nana) [7]: significant percent reduction of parasites
